Results published in patent EP2072513A1, “A cyano piperidinyl-phenil-oxazolidinone and use thereof” (Ferrer Internacional, S.A., priority 2007, dated 2009).
Values after ≈ are worked out from the molar mass of the structure shown. Read-outs that look alike come from different tables or passages of the source.

Tests used:
[1] = test system: S. aureus ATCC 25923 MS 319; assay: MIC, standard micro dilution method (NCCLS M7-A5); type: cell-based; details: Staphylococcus aureus, ATCC25923
[2] = test system: S. aureus ATCC 43300 MR 214; assay: MIC, standard micro dilution method (NCCLS M7-A5); type: cell-based; details: Staphylococcus aureus, ATCC43300
[3] = test system: S. aureus clinical strain cfr methylase 432; assay: MIC, standard micro dilution method (NCCLS M7-A5); type: cell-based; details: Staphylococcus aureus; S. aureus clinical strain cfr methylase 432 (linezolid-resistant)
[4] = test system: S. epidermidis ATCC 12228 MR 11; assay: MIC, standard micro dilution method (NCCLS M7-A5); type: cell-based; details: Staphylococcus epidermidis, ATCC12228
[5] = test system: S. pneumoniae ATCC 49619 PR 215; assay: MIC, standard micro dilution method (NCCLS M7-A5); type: cell-based; details: Streptococcus pneumoniae, ATCC49619
[6] = test system: E. faecalis ATCC 29212 53; assay: MIC, standard micro dilution method (NCCLS M7-A5); type: cell-based; details: Enterococcus faecalis, ATCC29212
[7] = test system: E. faecium ATCC 10541 13; assay: MIC, standard micro dilution method (NCCLS M7-A5); type: cell-based; details: Enterococcus faecium, ATCC10541
[8] = test system: B. fragilis ATCC 25285 A12; assay: MIC, standard micro dilution method (NCCLS M7-A5); type: cell-based; details: Bacteroides fragilis, ATCC25285; B. fragilis ATCC 25285 A12, anaerobic, Brucella Blood medium
[9] = test system: Moraxella catarrhalis HCl-78 259/339; assay: MIC, standard micro dilution method (NCCLS M7-A5); type: cell-based; details: HCL78259/339
[10] = target: T1, human MAO-A (Homo sapiens, UniProt P21397); assay: In vitro MAO-A enzymatic activity (kynuramine substrate, fluorescence); type: biochemical; details: membranes from SF9 cells, kynuramine 30 µM, 37° 40 min
T1 construct: purchased Gentest, BD, USA; host or cells: SF9 insect cells (membranes)
T1 sequence (P21397 1-527): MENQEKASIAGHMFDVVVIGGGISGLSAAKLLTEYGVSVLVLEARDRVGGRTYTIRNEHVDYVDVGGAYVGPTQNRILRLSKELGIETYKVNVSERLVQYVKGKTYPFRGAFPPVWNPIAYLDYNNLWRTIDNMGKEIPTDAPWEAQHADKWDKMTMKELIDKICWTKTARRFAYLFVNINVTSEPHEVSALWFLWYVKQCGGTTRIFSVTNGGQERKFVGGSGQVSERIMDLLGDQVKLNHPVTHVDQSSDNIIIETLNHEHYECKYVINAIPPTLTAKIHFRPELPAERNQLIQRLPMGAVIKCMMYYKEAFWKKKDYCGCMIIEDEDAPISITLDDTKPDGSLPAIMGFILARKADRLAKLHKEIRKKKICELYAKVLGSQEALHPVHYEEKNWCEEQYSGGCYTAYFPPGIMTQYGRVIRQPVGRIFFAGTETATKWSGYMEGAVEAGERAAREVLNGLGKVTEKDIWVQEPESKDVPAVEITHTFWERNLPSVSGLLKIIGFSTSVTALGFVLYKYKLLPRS
Method: (§1) MAO-A and MAO-B enzymatic activities were measured using membranes obtained from SF9 cells expressing either human MAO-A or human MAO-B (Gentest, BD, USA). Assays were done in blank 96-well micro titter plates using kynuramine as substrate and measuring the formation of 4-hydroxyquinoline by fluorescence at 340 nm/465 nm. Briefly, membranes with MAO-A (0.006 mg/mL protein) and MAO-B (0.015 mg/mL protein) were incubated with kynuramine, 30 µM, at 37° for 40 min in the presence of the compound in a final volume of 200 µL. Reactions were stopped by adding NaOH 2N and the reaction product, 4-hydroxyquinoline, was determined by fluorometry using a Tecan Ultra reader.

[11] = target: T2, human MAO-B (Homo sapiens, UniProt P27338); assay: In vitro MAO-B enzymatic activity (kynuramine substrate, fluorescence); type: biochemical; details: membranes from SF9 cells, kynuramine 30 µM, 37° 40 min
T2 construct: purchased Gentest, BD, USA; host or cells: SF9 insect cells (membranes)
T2 sequence (P27338 1-520): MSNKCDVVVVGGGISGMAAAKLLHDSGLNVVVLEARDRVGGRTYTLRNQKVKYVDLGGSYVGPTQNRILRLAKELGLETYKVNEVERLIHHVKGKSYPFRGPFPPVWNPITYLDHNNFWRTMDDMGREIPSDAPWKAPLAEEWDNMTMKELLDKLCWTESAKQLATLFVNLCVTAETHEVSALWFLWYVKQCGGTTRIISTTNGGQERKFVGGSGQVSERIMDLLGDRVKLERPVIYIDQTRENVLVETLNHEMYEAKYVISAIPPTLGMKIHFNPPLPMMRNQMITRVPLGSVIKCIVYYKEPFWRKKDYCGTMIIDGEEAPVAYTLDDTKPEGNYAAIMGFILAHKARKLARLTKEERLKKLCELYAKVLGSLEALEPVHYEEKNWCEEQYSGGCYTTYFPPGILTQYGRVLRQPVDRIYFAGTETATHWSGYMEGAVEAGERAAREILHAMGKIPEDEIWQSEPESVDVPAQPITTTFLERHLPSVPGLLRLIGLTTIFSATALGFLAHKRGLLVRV
Method: as §1

[12] = Equilibrium solubility of polymorphic forms in solvent systems; type: physicochemical
Method: Table 1: Equilibrium solubilities of polymorphic form B. Solubility studies were also performed for polymorphic form A. In Table 2 appear the data obtained. Table 2: Equilibrium solubilities of polymorphic form A.

[13] = Suspension equilibration experiments (relative stability of polymorphic forms); type: physicochemical; details: at room temperature (17-30 °C)
Text: However, a mixture of polymorphic form A and B in water slowly converted into pure polymorphic form B as well. Similarly, a suspension containing a mixture of polymorphic forms B and C in ethanol converted into polymorphic form B after some time.

[14] = test system: Moxarella, Pasteurella and Bacteroides spp.; details: cited from earlier work

Compound	MIC [1] [µg/mL]	MIC [2] [µg/mL]	MIC [3] [µg/mL]	MIC [4] [µg/mL]	MIC [5] [µg/mL]	MIC [6] [µg/mL]	MIC [7] [µg/mL]	MIC [8] [µg/mL]	MIC [9] [µg/mL]	Ki [10] [µM]	Ki [11] [nM]	Solubility ([12]; Ethanol) [mg/mL]	Solubility ([12]; Ethyl acetate) [mg/mL]	Solubility ([12]; water, pH 8.9, water, thermodynamic from solid, Water (Fluka 95305), pH 8.9, read-out: Solubility) [mg/mL]	relative stability of the polymorphic forms [13]	Solubility ([12]; Water (Fluka 95305), pH 8.9) [mg/mL]	Solubility ([12]; water, pH 8.7, water, thermodynamic from solid, Water (Fluka 95305), pH 8.7, read-out: Solubility) [mg/mL]	MICs [14] [µg/mL]
CC(=O)NC[C@H]1CN(c2ccc(N3CCC(C#N)CC3)c(F)c2)C(=O)O1 [Compound (Ia), (S)-N-{3-[4-(4-cyano-piperidin-1-yl)-3-fluoro-phenyl]-2-oxo-oxazolidin-5-ylmethyl}-acetamide]	1 (≈ 2.77 µM)	1 (≈ 2.77 µM)	2 (≈ 5.55 µM)	1 (≈ 2.77 µM)	0.5 (≈ 1.39 µM)	1 (≈ 2.77 µM)	0.5 (≈ 1.39 µM)	1 (≈ 2.77 µM)	1 (≈ 2.77 µM)	1.05	2450							
CC(=O)NC[C@H]1CN(c2ccc(N3CCC(C#N)CC3)c(F)c2)C(=O)O1 [polymorphic form B, (S)-N-{3-[4-(4-cyano-piperidin-1-yl)-3-fluoro-phenyl]-2-oxo-oxazolidin-5-ylmethyl}-acetamide]												2.6 (≈ 7210 µM)	2.9 (≈ 8050 µM)	0.24 (≈ 666 µM)	the most stable one			
CC(=O)NC[C@H]1CN(c2ccc(N3CCC(C#N)CC3)c(F)c2)C(=O)O1 [polymorphic form A, (S)-N-{3-[4-(4-cyano-piperidin-1-yl)-3-fluoro-phenyl]-2-oxo-oxazolidin-5-ylmethyl}-acetamide]												6.3 to 7.3	11.8 to 15.4			0.39 (≈ 1080 µM)	0.4 (≈ 1110 µM)	
CC(=O)NC[C@H]1CN(c2ccc(N3CCOCC3)c(F)c2)C(=O)O1 [Linezolid, N-[[(5S)-3-[3-fluoro-4-(4-morpholinyl)phenyl]-2-oxo-5-oxazolidinyl]methyl]acetamide, reference compound]	1 (≈ 2.96 µM)	1 (≈ 2.96 µM)	16 to 32 (≈ 47.4 to 94.9 µM)	1 (≈ 2.96 µM)	1 (≈ 2.96 µM)	0.5 (≈ 1.48 µM)	1 (≈ 2.96 µM)	2 (≈ 5.93 µM)	2 (≈ 5.93 µM)	6.96								2 to 8
